# Key:
# [1] = microbe, parasite or virus in culture; settings: Mycobacterium tuberculosis, 72 h, read-out: pIC50 (converted)
# [2] = microbe, parasite or virus in culture; settings: Mycobacterium tuberculosis, 96 h, read-out: pIC50 (converted)
smiles,measurement,setting,value
CN1CCCC(c2cccc(-c3cccc(C(F)(F)F)c3)n2)C1 (stereo not given),IC50,[1],2.88 µM
same,IC50,[2],3.45 µM
O=C(CCC(=O)N1CCC(Oc2ncccc2Br)CC1)c1ccccc1,IC50,[1],34.6 µM
same,IC50,[2],45.4 µM
NCC(CO)Cc1ccsc1 (stereo not given),IC50,[1],122 µM
same,IC50,[2],176 µM
COCCN1CCCN(C(=O)c2cc(Cl)c[nH]2)CC1,IC50,[1],195 µM
same,IC50,[2],> 501 µM
CC(NCc1ccc(OCC(N)=O)cc1)c1ccc(Cl)cc1Cl (stereo not given),IC50,[1],49 µM
same,IC50,[2],18.8 µM
Cc1nnc(SC[C@H](O)COCc2ccccc2)s1,IC50,[1],209 µM
same,IC50,[2],133 µM
COc1ccc2c(c1)OCC(CNC(=O)CN(C)C)C2 (stereo not given),IC50,[1],> 501 µM
same,IC50,[2],> 501 µM
CN(CCN1CCCC1)S(=O)(=O)c1ccccc1,IC50,[1],208 µM
same,IC50,[2],> 501 µM
Cc1n[nH]cc1CNCCNc1ncc(Cl)cc1Cl,IC50,[1],82.1 µM
same,IC50,[2],> 501 µM
CSc1ccc(CC(=O)N(C)Cc2ccon2)cc1,IC50,[1],> 501 µM
same,IC50,[2],> 501 µM
COc1ccc(C(=O)NC(C)Cn2cccn2)c(O)c1 (stereo not given),IC50,[1],256 µM
same,IC50,[2],276 µM
COCC(=O)NC1CCc2ccccc21 (stereo not given),IC50,[1],114 µM
same,IC50,[2],124 µM
CC(=O)NCc1ccc(C(=O)CSc2ccccn2)s1,IC50,[1],> 501 µM
same,IC50,[2],> 501 µM
CC(C)c1ccc(NC(=O)C2COCCN2C)cc1 (stereo not given),IC50,[1],151 µM
same,IC50,[2],> 501 µM
NCc1cc(Cl)ccn1,IC50,[1],156 µM
same,IC50,[2],301 µM
Cn1ccnc1CN1CCC2(CC(=O)N(c3cncnc3)C2)C1 (stereo not given),IC50,[1],> 50.1 µM
same,IC50,[2],> 50.1 µM
NCCc1ccc2cc[nH]c2c1,IC50,[1],212 µM
same,IC50,[2],> 501 µM
O=C(c1ccc(Br)o1)N1CCN(Cc2ccco2)CC1,IC50,[1],97.2 µM
same,IC50,[2],92 µM
COC(=O)COc1ccc(-c2noc(C3CCCO3)n2)cc1 (stereo not given),IC50,[1],31.9 µM
same,IC50,[2],18.6 µM
C=C(C)COc1c(Cl)cc(C(N)=O)cc1OC,IC50,[1],223 µM
same,IC50,[2],295 µM
Cc1cc(NC(C)CN2CCOCC2)ncc1Br (stereo not given),IC50,[1],420 µM
same,IC50,[2],> 501 µM
O=S(=O)(CCc1ccccc1)Cc1nc(C2CC2)no1,IC50,[1],10.6 µM
same,IC50,[2],10.7 µM
O=S(=O)(CCNc1ccccn1)NCC1CCC1,IC50,[1],307 µM
same,IC50,[2],213 µM
COc1cccc2c1CCCCN2C(=O)c1oc(C)nc1C,IC50,[1],> 50.1 µM
same,IC50,[2],> 50.1 µM
CC(CNC(=O)N[C@@H](C)C(=O)N(C)C)Cc1cccs1 (stereo not given in full),IC50,[1],247 µM
same,IC50,[2],277 µM
COc1ccc(C(C)CO)cc1 (stereo not given),IC50,[1],> 501 µM
same,IC50,[2],> 501 µM
Nc1nnnn1NCc1cccc(Cl)c1Cl,IC50,[1],> 50.1 µM
same,IC50,[2],> 50.1 µM
CC(C)c1nnc(CN(C)Cc2ccccc2-c2ccccc2)o1,IC50,[1],15.8 µM
same,IC50,[2],11.8 µM
Cc1ccsc1[C@@H]1CCN(C(=O)CCOc2ccccc2)C[C@H]1O,IC50,[1],> 50.1 µM
same,IC50,[2],> 50.1 µM
COc1cccc(OC2CNC2)c1,IC50,[1],> 501 µM
same,IC50,[2],> 501 µM
COC(CNC(=O)N1CCSCC1)c1ccc(F)cc1 (stereo not given),IC50,[1],> 501 µM
same,IC50,[2],> 501 µM
Fc1cc(Cl)cnc1N1CCCNCC1,IC50,[1],34.3 µM
same,IC50,[2],> 501 µM
CCNC(=O)CNc1cc(C)c(Cl)cc1OC,IC50,[1],135 µM
same,IC50,[2],> 501 µM
Cc1csc(N2CCCN(C(=O)c3cnsn3)CC2)n1,IC50,[1],284 µM
same,IC50,[2],> 501 µM
NC(=O)CN1CCC(OCCCc2ccccc2)C1 (stereo not given),IC50,[1],246 µM
same,IC50,[2],369 µM
Fc1ccccc1CN1CCC[C@H](Cn2nnc(-c3cccs3)n2)C1,IC50,[1],12.9 µM
same,IC50,[2],26.3 µM
OCCNCCNCc1ccc(-c2ccccc2Cl)o1,IC50,[1],136 µM
same,IC50,[2],34.4 µM
COC(=O)c1ccc(NCC(=O)NC(N)=O)cc1,IC50,[1],85.4 µM
same,IC50,[2],58.3 µM
Cc1cnn(CC2CCCN2Cc2ncc(-c3ccc(F)cc3)o2)c1 (stereo not given),IC50,[1],27 µM
same,IC50,[2],> 50.1 µM
COCCC(=O)N1CCC(Nc2ncccc2Br)CC1,IC50,[1],> 501 µM
same,IC50,[2],288 µM
Cc1cnc(NC(=O)c2csc(NC3CCCC3)n2)s1,IC50,[1],> 50.1 µM
same,IC50,[2],> 50.1 µM
COc1ccccc1OCCn1c(C)c(C)oc1=O,IC50,[1],> 50.1 µM
same,IC50,[2],> 50.1 µM
Cc1nc(N2CCCC2)nc2c1CCN(Cc1ccsc1)CC2,IC50,[1],0.893 µM
same,IC50,[2],1.59 µM
NCCNS(=O)(=O)c1ccc(F)c(Br)c1,IC50,[1],> 501 µM
same,IC50,[2],> 501 µM
CC(C)c1ccc(S(=O)(=O)C(C)C(N)=O)cc1 (stereo not given),IC50,[1],284 µM
same,IC50,[2],190 µM
Cc1ccoc1C(=O)N1CCC(n2cc(-c3ccsc3)nn2)CC1,IC50,[1],> 50.1 µM
same,IC50,[2],> 50.1 µM
COC(=O)CN(C)Cc1cc(Br)cs1,IC50,[1],> 50.1 µM
same,IC50,[2],> 50.1 µM
FC(F)(F)c1ccccc1CN1CCOC[C@H](Oc2cccnc2)C1,IC50,[1],48 µM
same,IC50,[2],18.7 µM
NC(=O)CN1CCC(COCc2ccccc2)C1 (stereo not given),IC50,[1],268 µM
same,IC50,[2],292 µM
CC(C)C(=O)N1CCC(C(=O)c2ccc(O)cc2)CC1,IC50,[1],5.6 µM
same,IC50,[2],> 501 µM
Nc1nnc(SCC(=O)NCCc2cccc(Cl)c2)s1,IC50,[1],287 µM
same,IC50,[2],> 501 µM
N[C@H]1CCN(S(=O)(=O)c2ccc(F)c(C(F)(F)F)c2)C1,IC50,[1],100 µM
same,IC50,[2],171 µM
CC(C)c1ccc(C(N)CNS(C)(=O)=O)cc1 (stereo not given),IC50,[1],202 µM
same,IC50,[2],268 µM
CC(C)(C#N)C(=O)NCCNc1cccc(Br)c1,IC50,[1],267 µM
same,IC50,[2],206 µM
COCc1n[nH]c2c1CN(C(=O)c1ccncc1)C2,IC50,[1],29.7 µM
same,IC50,[2],> 50.1 µM
CC(Nc1ccc(C#N)cn1)c1ccc2c(c1)OCO2 (stereo not given),IC50,[1],215 µM
same,IC50,[2],234 µM
COC(=O)CCCC(=O)N1CCCc2ccccc2C1,IC50,[1],180 µM
same,IC50,[2],> 501 µM
O=C(NCC1CCCO1)c1cc(-c2cccs2)on1 (stereo not given),IC50,[1],38.3 µM
same,IC50,[2],54.8 µM
O=C(NCCOc1ncccc1Cl)c1ccsc1,IC50,[1],470 µM
same,IC50,[2],145 µM
O=C(CSc1cnn[nH]1)Nc1ccc(Cl)cn1,IC50,[1],99.4 µM
same,IC50,[2],> 501 µM
CCOc1ncccc1CNC(=O)c1[nH]ncc1Br,IC50,[1],> 501 µM
same,IC50,[2],> 501 µM
Cc1ccc(CNC(=O)c2cnn(C)c2)cc1F,IC50,[1],275 µM
same,IC50,[2],> 501 µM
Fc1ccc(C(NCc2nnc(-c3ccco3)o2)C2CCC2)cc1 (stereo not given),IC50,[1],0.884 µM
same,IC50,[2],4.62 µM
CC(C)c1nnc(CNc2ccc(SC(F)(F)F)cc2)o1,IC50,[1],19.3 µM
same,IC50,[2],18.9 µM
COc1cc(CNC(=O)C(C)OCC(C)C)ccn1 (stereo not given),IC50,[1],> 501 µM
same,IC50,[2],> 501 µM
Cc1nn(C)c(C)c1CN(CCO)C(=O)C1COc2ccccc2C1 (stereo not given),IC50,[1],> 50.1 µM
same,IC50,[2],> 50.1 µM
OCC(Nc1ncccc1Br)c1ccccc1 (stereo not given),IC50,[1],184 µM
same,IC50,[2],327 µM
COC(=O)C(C)OC(=O)c1cccnc1SC (stereo not given),IC50,[1],> 501 µM
same,IC50,[2],> 501 µM
Cc1ccc(CN2CCOC3(CCN(C(=O)C4CC=CC4)CC3)C2)cc1,IC50,[1],30.5 µM
same,IC50,[2],40.9 µM
CC(C)OCCn1nnnc1Cc1ccc(Br)cc1,IC50,[1],35.5 µM
same,IC50,[2],14.5 µM
CC(C)CNC(=O)c1cc2c(s1)CCN2Cc1cccnc1,IC50,[1],> 50.1 µM
same,IC50,[2],> 50.1 µM
N#Cc1ccc(S(=O)(=O)NCCCN)cc1C(F)(F)F,IC50,[1],205 µM
same,IC50,[2],> 501 µM
COc1cc(C(=O)NCC2CCC2)cc2c1OCCO2,IC50,[1],245 µM
same,IC50,[2],321 µM
CC(C)(O)Cn1nnc(-c2cccs2)n1,IC50,[1],> 501 µM
same,IC50,[2],> 501 µM
NCC(=O)N1CCCC(CCc2ccc(F)cc2F)C1 (stereo not given),IC50,[1],137 µM
same,IC50,[2],310 µM
COCCCOc1ccc2c(c1)OCCO2,IC50,[1],92.8 µM
same,IC50,[2],109 µM
CC1(NC(=O)CC2CCc3ccccc32)CCOCC1 (stereo not given),IC50,[1],> 50.1 µM
same,IC50,[2],> 50.1 µM
COC(=O)N1CCN(c2ccccn2)CC1,IC50,[1],> 501 µM
same,IC50,[2],168 µM
COCCOC1CCN(c2cccc(C)n2)CC1,IC50,[1],245 µM
same,IC50,[2],366 µM
COc1cccc(-c2noc3c2CN(c2nc(C)ncc2C)CC3)c1,IC50,[1],3.39 µM
same,IC50,[2],34.5 µM
NC(=O)C(Sc1nncs1)c1ccc(Br)cc1 (stereo not given),IC50,[1],412 µM
same,IC50,[2],266 µM
Cc1cccc(NCCC(=O)NC2CCCC2)n1,IC50,[1],122 µM
same,IC50,[2],> 501 µM
CN1CCOC(C(=O)Nc2ncc(Cl)s2)C1 (stereo not given),IC50,[1],361 µM
same,IC50,[2],296 µM
CC(C)CNc1cccc(-n2cnnn2)c1,IC50,[1],274 µM
same,IC50,[2],247 µM
O=C(c1ccc(Cn2cnnn2)cc1)N1CCC(c2ccncc2)CC1,IC50,[1],> 50.1 µM
same,IC50,[2],> 50.1 µM
Cn1c2c(c(=O)n1C)CN(C(=O)c1ccco1)CCC2,IC50,[1],> 50.1 µM
same,IC50,[2],> 50.1 µM
O=C(c1cc(Cl)c[nH]1)N1CCOC(c2cccs2)C1 (stereo not given),IC50,[1],50.5 µM
same,IC50,[2],> 501 µM
O=C(c1cccnc1)N(CCO)Cc1cc(Br)ccc1F,IC50,[1],> 50.1 µM
same,IC50,[2],> 50.1 µM
CC(C)C[C@H](N)C(=O)N(C)c1ccccc1,IC50,[1],242 µM
same,IC50,[2],225 µM
Cc1nc(C2CCCN(C(=O)c3cc4c(s3)CCCC4)C2)no1 (stereo not given),IC50,[1],40.8 µM
same,IC50,[2],11.7 µM
COCCNS(=O)(=O)c1cccc2c1CN(C(=O)c1ccoc1)CC2,IC50,[1],> 50.1 µM
same,IC50,[2],> 50.1 µM
Cc1cccc(-c2nnc(C(C)N3CCn4c(C)nnc4C3)o2)c1 (stereo not given),IC50,[1],> 50.1 µM
same,IC50,[2],> 50.1 µM
COC(=O)[C@H](C)NC(=O)c1cc(-c2cccc(Cl)c2)no1,IC50,[1],42.5 µM
same,IC50,[2],26 µM
O=C(NC1CC1)N1CCN(c2ncccc2Cl)CC1,IC50,[1],> 501 µM
same,IC50,[2],> 501 µM
NCc1ccc(Cl)cn1,IC50,[1],324 µM
same,IC50,[2],249 µM
CN1CCCCC1CC(=O)NCc1ccc(C#N)cc1 (stereo not given),IC50,[1],> 501 µM
same,IC50,[2],> 501 µM
CC(C)c1cccc(S(=O)(=O)NCCCN)c1,IC50,[1],195 µM
same,IC50,[2],> 501 µM
Cc1cc(C)c(C#N)c(N2CCC(Cc3ccccc3)CC2)n1,IC50,[1],> 50.1 µM
same,IC50,[2],> 50.1 µM
CNC(=O)CNC(=O)c1cc2ccccc2cc1OC,IC50,[1],> 501 µM
same,IC50,[2],> 501 µM
Cc1cc(NC(=O)Cc2ccc3c(c2)OCCO3)no1,IC50,[1],271 µM
same,IC50,[2],> 501 µM
Cc1cc(C)nc(N2CCCC(c3cccc(-n4ccnc4)n3)C2)n1 (stereo not given),IC50,[1],26.9 µM
same,IC50,[2],28.7 µM
CCOCC(=O)NCC1(O)CCCc2ccccc21 (stereo not given),IC50,[1],83.9 µM
same,IC50,[2],231 µM
CN(Cc1cccc(C#N)c1)C(=O)C1CC1,IC50,[1],> 501 µM
same,IC50,[2],133 µM
Cc1ccc(C(=O)N2CC(Oc3ccccc3C)C2)s1,IC50,[1],8.82 µM
same,IC50,[2],10.7 µM
CN(C)S(=O)(=O)N1CCC(Oc2ccccc2Cl)CC1,IC50,[1],343 µM
same,IC50,[2],232 µM
